These results are taken from patent US10689383B2, “Optionally fused heterocyclyl-substituted derivatives of pyrimidine useful for the treatment of inflammatory, metabolic, oncologic and autoimmune diseases” (NUEVOLUTION A/S, priority 2014, dated 2020).

Where only a bound is given, the exact number is not on record here.

By inhibition is commonly meant the percentage by which the read-out fell short of the control.

Assay [1] has as its target T1, human RORγt (Ligand Binding Domain) (Homo sapiens, UniProt P51449).
T1 construct: purchased Crelux (Planegg, Germany) batch no PC5032-1
T1 sequence (P51449 269-508 limits assumed): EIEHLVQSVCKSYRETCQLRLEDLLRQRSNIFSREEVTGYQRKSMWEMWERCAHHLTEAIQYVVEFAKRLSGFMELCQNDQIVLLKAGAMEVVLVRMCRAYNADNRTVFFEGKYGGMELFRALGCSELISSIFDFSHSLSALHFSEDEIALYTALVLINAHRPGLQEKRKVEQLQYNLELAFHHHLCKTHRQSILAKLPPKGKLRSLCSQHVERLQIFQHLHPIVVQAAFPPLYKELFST
The experiment in a line: Fluorescence Polarization (FP) Assay. As to conditions: Fluorescence Polarization (FP) Assay; values given as upper bounds of activity ranges; read-out: FP activity range. An outline of the steps:
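Binding to the ligand pocket followed by fluorescence polarization with a TAMRA-tagged RORγt ligand probe of 910 g/mole. Negative control wells received DMSO only.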
On the technique in general: In fluorescence polarisation assays a small probe gives low polarisation when free and higher when bound to something large.

For the next assay, the system named is male DBA/1J mice. The experiment in a line: Collagen-Induced Arthritis (CIA) Study. As to conditions: orally twice daily. The class given is in vivo. The procedure: Collagen-induced arthritis is an animal model of rheumatoid arthritis used to evaluate the efficacy of test compounds. CIA was induced at Washington Biotechnology Inc. (Baltimore) in male DBA/1J mice (Jackson Laboratories) by subcutaneous injection at the base of the tail with 50 μl of a bovine collagen/complete Freund's adjuvant emulsion. After 21 days, the mice were further boosted by a further subcutaneous injection of 50 μl of a collagen/incomplete Freund's adjuvant emulsion. For treatment, compound or vehicle (2% DMSO, 10% HP-β-CD in MilliQ water) was given orally twice daily at various doses selected from 3, 10, 30 mg/kg, beginning at the day of CIA induction (Prophylactic setting), or after disease initiation (at day 27, therapeutic setting). Treatment lasted until day 41, and the animals were scored three times weekly. Each paw was scored and the sum of all four scores was recorded as the Arthritic Index (AI). The maximum possible AI was 16.0=no visible effects of arthritis; 1=edema and/or erythema of one digit; 2=edema and/or erythema of 2 joints; 3=edema and/or erythema of more than 2 joints; 4=severe arthritis of the entire paw and digits including limb deformation and ankylosis of the joint. The Arthritis Index for each treatment can be expressed as the mean score for each treatment group+/−S.E.M.

Another assay deals with female C57BL/6 mice. The experiment in a line: Experimental Autoimmune Encephalomyelitis (EAE) Study. It counts as in vivo. The settings on record: 10 and 30 mg/kg, orally twice daily, 25 days.
The target of assay [2] is T2, yeast Gal4-DNA binding domain fused to the ligand binding domain of human RORγ (Homo sapiens, UniProt P51449).
T2 construct: host or cells: HEK293t
T2 sequence (P51449 269-508 limits assumed): T1 sequence (P51449 269-508 limits assumed)
Description: RORγ Reporter Assay (Gal4). It counts as cell-based. As to conditions: values given as lower bounds of ranges; for Gal4 activity range @ 0.1 μM (% inhibition): RORγ Reporter Assay (Gal4) at 0.1 μM; for Gal4 activity range @ 1 μM (% inhibition): RORγ Reporter Assay (Gal4) at 1 μM. An outline of the steps:
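Compound at final 1,000 or 100 nM (0.1% DMSO, triplicate) was added to the transfected HEK293t cells carrying a Gal4-UAS luciferase reporter for 24 h at 37 °C, 10% charcoal-stripped FBS. Activity reduction expressed as percent of vehicle-only luciferase signal.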
A general note: Reporter assays use an easily measured gene product as a stand-in for the process of interest.

The next assay deals with Th17 cells. Description: Th17 Assay (IL-17 levels in supernatants by ELISA). The class given is cell-based. As to conditions: Homo sapiens; read-out: Th17 activity range @ 1 μM (% inhibition). The procedure: The activity of the compounds was evaluated using a Fluorescence Polarization (FP) Assay and, in most cases, a Th17 Assay and/or RORγ Reporter assay (also referred to as Gal4 assay). The FP assay is an in vitro assay monitoring binding within the ligand binding pocket. The RORγ and the Th17 assays are both cell-based assays monitoring functional activity of the compound assayed.
Human peripheral blood mononuclear cells (PBMCs) were isolated from buffy coats of healthy human volunteers using the Ficoll paque PLUS kit (GE Healthcare, cat no 17-1440-02), as instructed by the manufacturer. Naive CD4+ T cells were isolated with Naive CD4+ T cell kit, human (Milteny Biotec, cat no 130-094-131). The following modifications were made to the manufacturer's protocol: 1) Incubation with Biotin-Antibody Cocktail and Anti-Biotin MicroBeads was prolonged to 30 minutes, and 2) Cells were washed with 40 mL of Miltenyi buffer. Differentiation of Th17 cells in anti-CD3 (BD Pharmingen, 5 μg/ml) coated 96-well plates (400,000 cells/well, 160 μl RPMI 1640+10% Fetal Bovine Serum) containing 5 μg/ml anti-CD28 (BD Pharmingen), 10 ng/ml IL-2 (R&D Systems), 2.5 ng/ml TGFβ-1 (R&D Systems), 20 ng/ml IL-1β (R&D Systems), 20 ng/ml IL-6 (R&D Systems), 30 ng/ml IL-23 (R&D Systems), 2.5 μg/ml anti-IL-4 (R&D Systems) and 1 μg/ml anti-IFNγ (R&D Systems) and with test compound during the entire differentiation (or vehicle, 0.1% DMSO for control). Test compounds were tested in triplicates, diluted 1000-fold in medium (final DMSO concentration is 0.1%). Incubated for seven days at 37° C., 5% CO2, 95% humidity, and 2-fluoro-4′-[[4-(4-pyridinylmethyl)-1-piperazinyl]methyl]-α,α-bis(trifluoromethyl)-[1,1′-biphenyl]-4-methanol (SR2211 Calbiochem, Cat. No. 557353) was used as positive control. As negative control, cells were differentiated into Th0 using 5 μg/ml anti-CD28 (BD Pharmingen), 10 ng/ml IL-2 (R&D Systems), 2 μg/ml anti-IL4 (R&D Systems) and 2 μg/ml anti-IFNγ (R&D Systems) are negative control. IL-17 levels in supernatants were measured with ELISA (R&D Systems).
(An ELISA detects its analyte on a solid surface through an enzyme-linked reagent.)

As for `NC(=O)Cc1ccc(CNc2ncnc(N3CCOC[C@@H]3c3ccc(C(F)(F)F)cc3)c2F)cc1` [Example 204, 2-[4-[[[5-fluoro-6-[(3S)-3-[4-(trifluoromethyl)phenyl]morpholin-4-yl]pyrimidin-4-yl]amino]methyl]phenyl]acetamide], the IC50 in assay [1] is below 500 nM. In the assay on male DBA/1J mice (30 mg/kg, from day 27), the “CIA disease development, therapeutic setting” value is recorded as “arrest disease development”. Besides, the “CIA disease severity, prophylactic setting” value with male DBA/1J mice (10 and 30 mg/kg, from day of CIA induction) is “significantly reduce disease severity”. For the same compound, in the assay on female C57BL/6 mice, the EAE clinical score result is reported as “lower clinical score” and the “onset of EAE” value is reported as “delay onset”. Moreover, in assay [2], the “Gal4 activity range @ 0.1 μM (% inhibition)” value is given as above 50 % inhibition and the “Gal4 activity range @ 1 μM (% inhibition)” value was above 80 % inhibition.
For the compound `CC(C)(C)C[C@@H](Nc1ncnc(N2CCC[C@@H]2c2ccc(C(F)(F)F)cc2)c1F)C(N)=O` (single isomer, unassigned) [Example 62, (2R)-2-[[5-fluoro-6-[(2R)-2-[4-(trifluoromethyl)phenyl]pyrrolidin-1-yl]pyrimidin-4-yl]amino]-4,4-dimethyl-pentanamide or (2R)-2-[[5-fluoro-6-[(2S)-2-[4-(trifluoromethyl)phenyl]pyrrolidin-1-yl]pyrimidin-4-yl]amino]-4,4-dimethyl-pentanamide], the inhibition at 1 µM in the assay with Th17 cells was above 80%. In addition, the IC50 in assay [1] is below 500 nM. Besides, the “Gal4 activity range @ 1 μM (% inhibition)” value in assay [2] is above 80 % inhibition.
Take `O=C(O)Cc1ccc(CNc2ncnc(N3CCOCC3c3ccc(OC(F)(F)F)cc3)c2F)cc1` (stereo not drawn) [Example 91, 2-[4-[[[5-fluoro-6-[3-[4-(trifluoromethoxy)phenyl]morpholin-4-yl]pyrimidin-4-yl]amino]methyl]phenyl]acetic acid]: the inhibition at 1 µM in the assay with Th17 cells is above 80%. Moreover, the IC50 in assay [1] was below 500 nM. Also, in assay [2], the “Gal4 activity range @ 0.1 μM (% inhibition)” value is reported as above 20 % inhibition and the “Gal4 activity range @ 1 μM (% inhibition)” value is on record as above 80 % inhibition.
As to `O=C(O)Cc1ccc(Cn2ccc3c(N4CCCC4c4ccc(C(F)(F)F)cc4)ncnc32)cc1` (stereo not drawn) [Example 85, 2-[4-[[4-[2-[4-(trifluoromethyl)phenyl]pyrrolidin-1-yl]pyrrolo[2,3-d]pyrimidin-7-yl]methyl]phenyl]acetic acid], the inhibition at 1 µM in the assay with Th17 cells was above 80%. The IC50 in assay [1] is below 500 nM. In assay [2], the “Gal4 activity range @ 1 μM (% inhibition)” value is reported as above 80 % inhibition.
In the case of `Cc1ccc(CNc2ncnc(N3CCCC3c3ccc(C(F)(F)F)cc3)c2F)cn1` (stereo not drawn) [Example 89, 5-fluoro-N-[(6-methyl-3-pyridyl)methyl]-6-[2-[4-(trifluoromethyl)phenyl]pyrrolidin-1-yl]pyrimidin-4-amine], the inhibition at 1 µM with Th17 cells was above 20%. The IC50 in assay [1] is below 500 nM. In assay [2], the “Gal4 activity range @ 0.1 μM (% inhibition)” value is above 20 % inhibition and the “Gal4 activity range @ 1 μM (% inhibition)” value was above 80 % inhibition.
In the case of `CC(C)(C)C[C@H](CO)Nc1ncnc(N2CCCC2c2ccc(C(F)(F)F)cc2)c1F` (stereo partly drawn) [Example 30, (2R)-2-[[5-fluoro-6-[2-[4-(trifluoromethyl)phenyl]pyrrolidin-1-yl]pyrimidin-4-yl]amino]-4,4-dimethyl-pentan-1-ol], the inhibition at 1 µM in the assay with Th17 cells was above 50%. Also, the IC50 in assay [1] was below 500 nM. For the same compound, the “Gal4 activity range @ 1 μM (% inhibition)” value in assay [2] was above 80 % inhibition.
